# Values joined by “and” are separate entries in the source; they are usually repeats but may differ in a detail not shown here. Identical values can stand only once. Like-named read-outs stand apart in the source and are kept apart here. *1 amine or outer side, *2 acyl side, *3 side chain or, on linkers, in order; H or OH if unused. Where a SMILES comes first, the peptide text is derived from it. Where no end group is shown, it is not given here. [ ]: non-standard residue; d: D form. The star is where a group is joined. Ethylenediamine = C(CN[*:2])N[*:1]; Cbz = O=C(OCc1ccccc1)*; OBn = c1ccc(CO*)cc1
# Experiments:
# [1] = system: Escherichia coli ATCC 25922
# [2] = system: Staphylococcus aureus ATCC 25923
# [3] = system: MRSA ATCC 33591; details: ATCC 33591
# [4] = system: MRSE ATCC 27626; details: ATCC 27626
# [5] = system: Escherichia coli ATCC 25922; remark: listed apart in the source
# [6] = system: Staphylococcus aureus ATCC 25923; remark: listed apart in the source
# [7] = Table 1, peptide amides, value outside brackets
MIC E. coli ([1]; ATCC 25922),MIC S. aureus ([2]; ATCC 25923),Compound,MBC E. coli ([5]; ATCC 25922),MBC S. aureus ([6]; ATCC 25923),also measured
>100 µg/mL,10 µg/mL,N=C(N)NCCC[C@H](NC(=O)[C@H](Cc1c[nH]c2ccccc12)NC(=O)[C@H](Cc1c[nH]c2ccccc12)NC(=O)[C@@H](N)CCCNC(=N)N)C(N)=O [RWWR] (H-RWWR-NH2; N-terminus assumed),>100 µg/mL,>100 µg/mL,
10 µg/mL,7.5 µg/mL,N=C(N)NCCC[C@H](NC(=O)[C@H](CCCNC(=N)N)NC(=O)[C@H](Cc1c[nH]c2ccccc12)NC(=O)[C@H](Cc1c[nH]c2ccccc12)NC(=O)[C@H](Cc1c[nH]c2ccccc12)NC(=O)[C@@H](N)CCCNC(=N)N)C(N)=O [RWWWRR] (H-RWWWRR-NH2),15 µg/mL,10 µg/mL,
,5 µg/mL,N=C(N)NCCC[C@H](N)C(=O)N[C@@H](Cc1c[nH]c2ccccc12)C(=O)N[C@H](CCCNC(=N)N)C(=O)N[C@H](Cc1c[nH]c2ccccc12)C(=O)OCc1ccccc1 [RWrw-OBzl] (H-RW[dR][dW]-OBn),,,MIC MRSE [4]: 2.5 µg/mL
>100 µg/mL,75 to 100 µg/mL,N=C(N)NCCC[C@H](NC(=O)[C@H](CCCNC(=N)N)NC(=O)[C@@H](N)Cc1c[nH]c2ccccc12)C(=O)N[C@@H](Cc1c[nH]c2ccccc12)C(N)=O [WRRW] (H-WRRW-NH2; N-terminus assumed),>100 µg/mL,>100 µg/mL,
>100 µg/mL,75 µg/mL,N=C(N)NCCC[C@H](NC(=O)[C@@H](N)Cc1c[nH]c2ccccc12)C(=O)N[C@@H](Cc1c[nH]c2ccccc12)C(N)=O [WRW] (H-Trp-Arg-Trp-NH2; N-terminus assumed),>100 µg/mL,100 µg/mL,
20 (20) μg/ml,,N=C(N)NCCC[C@H](NC(=O)[C@H](CCCNC(=N)N)NC(=O)[C@H](CCCNC(=N)N)NC(=O)[C@H](Cc1c[nH]c2ccccc12)NC(=O)[C@@H](N)Cc1c[nH]c2ccccc12)C(=O)N[C@@H](Cc1c[nH]c2ccccc12)C(N)=O [WWRRRW] (H-WWRRRW-NH2),20 µg/mL,,
>200 µg/mL,,N=C(N)NCCC[C@@H](N)C(=O)N[C@H](Cc1c[nH]c2ccccc12)C(=O)OCc1ccccc1 [rw-OBzl] (H-[dR]-[dW]-OBn),,,MIC MRSE [4]: 20 µg/mL
,20 µg/mL,N=C(N)NCCC[C@H](NC(=O)[C@H](N)Cc1c[nH]c2ccccc12)C(=O)N[C@@H](Cc1c[nH]c2ccccc12)C(=O)OCc1ccccc1 [wRW-OBzl] (H-[dW]-Arg-Trp-OBn),,,MIC MRSE [4]: 10 µg/mL

# Further lines, the compound ahead of its results:
Compound,MIC E. coli ([1]; ATCC 25922),MIC S. aureus ([2]; ATCC 25923),MBC E. coli ([5]; ATCC 25922),MBC S. aureus ([6]; ATCC 25923),also measured
C[C@H](N)C(=O)N[C@@H](CCCNC(=N)N)C(=O)OCc1ccc(-c2ccccc2)cc1 [AROBip],,,,,Minimum inhibitory concentration E. coli ([1]; ATCC 25922): 300 µg/mL; Minimum inhibitory concentration S. aureus ([2]; ATCC 25923): 100 µg/mL; Minimum inhibitory concentration MRSA [3]: 37.5 µg/mL; Minimum inhibitory concentration MRSE [4]: 25 µg/mL
N=C(N)NCCC[C@H](NC(=O)[C@@H](N)Cc1ccc(-c2ccccc2)cc1)C(=O)OCc1ccc(-c2ccccc2)cc1 [BipROBip],,,,,Minimum inhibitory concentration E. coli ([1]; ATCC 25922): 50 µg/mL; Minimum inhibitory concentration S. aureus ([2]; ATCC 25923): 5.0 µg/mL; Minimum inhibitory concentration MRSA [3]: 5.0 µg/mL; Minimum inhibitory concentration MRSE [4]: 5.0 µg/mL
"N=C(N)NCCC[C@H](NC(=O)C1CCCCC1)C(=O)N[C@@H](Cc1c[nH]c2ccccc12)C(=O)OCc1ccccc1 [Chx RW OBz, Chx-Arg-Trp-OBzl]",200 (>200) μg/ml,75 (75) μg/ml,200 (>200) μg/ml,75 (75) μg/ml,
"COC(=O)[C@H](CCCNC(=N)N)NC(=O)[C@H](Cc1c[nH]c2ccccc12)NC(=O)C1CCCCC1 [Chx WR OMe, Chx-Trp-Arg-OMe]",>200 (>200) μg/ml,>200 (>200) μg/ml,>200 (>200) μg/ml,>200 (>200) μg/ml,
N=C(N)NCCC[C@H](NC(=O)[C@@H](N)Cc1ccccc1)C(=O)OCc1ccc(-c2ccccc2)cc1 [FROBip],,,,,Minimum inhibitory concentration E. coli ([1]; ATCC 25922): 100 µg/mL; Minimum inhibitory concentration S. aureus ([2]; ATCC 25923): 12.5 µg/mL; Minimum inhibitory concentration MRSA [3]: 12.5 µg/mL; Minimum inhibitory concentration MRSE [4]: 5 µg/mL
"N=C(N)NCCC[C@H](NC(=O)Cc1c[nH]c2ccccc12)C(=O)N[C@@H](Cc1c[nH]c2ccccc12)C(=O)NCCNC(=O)OCc1ccccc1 [Ind RW DaeZ, Ind-Arg-Trp-Dae-Z]",>200 (>200) μg/ml,75 (75) μg/ml,>200 (>200) μg/ml,75 (75) μg/ml,
"N=C(N)NCCC[C@H](NC(=O)Cc1c[nH]c2ccccc12)C(=O)N[C@@H](Cc1c[nH]c2ccccc12)C(=O)OCc1ccccc1 [Ind RW OBz, Ind-Arg-Trp-OBzl]",>200 (>200) μg/ml,20 (20) μg/ml,>200 (>200) μg/ml,20 (20) μg/ml,
"COC(=O)[C@H](CCCNC(=N)N)NC(=O)[C@H](Cc1c[nH]c2ccccc12)NC(=O)Cc1c[nH]c2ccccc12 [Ind WR OMe, Ind-Trp-Arg-OMe]",>200 (>200) μg/ml,>200 (>200) μg/ml,>200 (>200) μg/ml,>200 (>200) μg/ml,
NCCCC[C@H](N)C(=O)N[C@@H](Cc1ccccc1)C(=O)OCc1ccccc1 [KF-Obzl],>300 µg/mL,300 µg/mL,,,MIC MRSA [3]: 300 µg/mL; MIC MRSE [4]: 150 µg/mL
N=C(N)NCCC[C@H](NC(=O)[C@H](CCCNC(=N)N)NC(=O)[C@@H](N)CCCNC(=N)N)C(=O)N[C@@H](Cc1c[nH]c2ccccc12)C(=O)N[C@@H](Cc1c[nH]c2ccccc12)C(=O)N[C@@H](Cc1c[nH]c2ccccc12)C(N)=O [RRRWWW] (H-RRRWWW-NH2),,,20 µg/mL,,
"N=C(N)NCCC[C@H](N)C(=O)N[C@@H](Cc1c[nH]c2ccccc12)C(=O)NCCNC(=O)OCc1ccccc1 [RW DaeZ, H-Arg-Trp-Dae-Z] (H-Arg-Trp-{Ethylenediamine-Cbz})",>200 (>200) μg/ml,50 µg/mL,>200 (>200) μg/ml,75 µg/mL,
N=C(N)NCCC[C@H](NC(=O)[C@H](Cc1c[nH]c2ccccc12)NC(=O)[C@@H](N)CCCNC(=N)N)C(=O)N[C@@H](Cc1c[nH]c2ccccc12)C(=O)OCc1ccccc1 [RWRW-OBzl] (H-RWRW-OBn),100 µg/mL,,,,MIC MRSE [4]: 2.5 µg/mL
N=C(N)NCCC[C@H](NC(=O)[C@H](Cc1c[nH]c2ccccc12)NC(=O)[C@H](CCCNC(=N)N)NC(=O)[C@H](Cc1c[nH]c2ccccc12)NC(=O)[C@@H](N)CCCNC(=N)N)C(=O)N[C@@H](Cc1c[nH]c2ccccc12)C(N)=O [RWRWRW] (H-RWRWRW-NH2),,,20 µg/mL,10 µg/mL,
N=C(N)NCCC[C@H](NC(=O)[C@H](Cc1c[nH]c2ccccc12)NC(=O)[C@H](CCCNC(=N)N)NC(=O)[C@H](Cc1c[nH]c2ccccc12)NC(=O)[C@@H](N)CCCNC(=N)N)C(N)=O [RWRWR] (H-RWRWR-NH2),,20 µg/mL,100 µg/mL,20 µg/mL,
N=C(N)NCCC[C@H](NC(=O)[C@H](Cc1c[nH]c2ccccc12)NC(=O)[C@@H](N)CCCNC(=N)N)C(N)=O [RWR] (H-Arg-Trp-Arg-NH2; N-terminus assumed),>100 µg/mL,>100 µg/mL,>100 µg/mL,>100 µg/mL,
N=C(N)NCCC[C@H](NC(=O)[C@H](Cc1c[nH]c2ccccc12)NC(=O)[C@H](CCCNC(=N)N)NC(=O)[C@@H](N)Cc1c[nH]c2ccccc12)C(=O)N[C@@H](Cc1c[nH]c2ccccc12)C(N)=O [WRWRW] (H-WRWRW-NH2),,,50 µg/mL,20 (20) μg/ml,
N=C(N)NCCC[C@H](NC(=O)[C@H](Cc1c[nH]c2ccccc12)NC(=O)[C@H](CCCNC(=N)N)NC(=O)[C@@H](N)Cc1c[nH]c2ccccc12)C(N)=O [WRWR] (H-WRWR-NH2; N-terminus assumed),,,,,"MIC E. coli [1, 7]: >100 µg/mL; MIC S. aureus [2, 7]: 100 µg/mL; MBC E. coli ([5]; Table 1, peptide amides): >100 µg/mL; MBC S. aureus [6, 7]: >100 µg/mL"
N=C(N)NCCC[C@@H](NC(=O)[C@H](N)Cc1c[nH]c2ccccc12)C(=O)N[C@H](Cc1c[nH]c2ccccc12)C(=O)OCc1ccccc1 [wrw-OBzl] (H-[dW]-[dR]-[dW]-OBn),,,,,MIC MRSE [4]: 5 µg/mL
"AWRWRA-NH2 Pmc+: hexapeptide amide having the Pmc group (also: Pmc group, position not given here)",,,,,"MIC E. coli ([1]; Table 8, first column): 20 µg/mL; MIC E. coli ([1]; Table 8, second column): 18.0 μM/ml; MIC S. aureus ([2]; Table 8, first column): 2.5 µg/mL; MIC S. aureus ([2]; Table 8, second column): 2.3 μM/ml"
"RRAAWW-NH2 Pmc+: hexapeptide amide having the Pmc group; label printed twice, second probably RRAAWB (also: Pmc group, position not given here)",,,,,"MIC E. coli ([1]; Table 8, first column): 20 µg/mL; MIC E. coli ([1]; Table 8, second column): 17.4 μM/ml and 18.0 μM/ml; MIC S. aureus ([2]; Table 8, first column): 2.5 µg/mL; MIC S. aureus ([2]; Table 8, second column): 2.2 μM/ml and 2.3 μM/ml"
"WRAAWR-NH2 Pmc+: hexapeptide amide having the Pmc group (also: Pmc group, position not given here)",,,,,"MIC E. coli ([1]; Table 8, first column): 50 µg/mL; MIC E. coli ([1]; Table 8, second column): 45.0 μM/ml; MIC S. aureus ([2]; Table 8, first column): 2.5 µg/mL; MIC S. aureus ([2]; Table 8, second column): 2.3 μM/ml"
"WWAARR-NH2 Pmc+: hexapeptide amide having the Pmc group (also: Pmc group, position not given here)",,,,,"MIC E. coli ([1]; Table 8, first column): 50 µg/mL; MIC E. coli ([1]; Table 8, second column): 45.0 μM/ml; MIC S. aureus ([2]; Table 8, first column): 5 µg/mL; MIC S. aureus ([2]; Table 8, second column): 4.5 μM/ml"
